Values of other authors, collected in paper PMC11261219 (Clinical and Molecular Hepatology, 2024).

Assays:
[1] = system: HBV DNA and HBV RNA; details: added to patients taking NUCs, versus NUCs alone
[2] = system: HBV; details: after 3 years

Compound | suppression of HBV DNA and HBV RNA [1] | functional cure, patients [2]
O=C(NCc1cnc(C(F)(F)F)s1)c1ccc2c(c1)NC(=O)c1ccccc1S2(=O)=O [vebicorvir] | further suppressed HBV DNA and HBV RNA more than with NUCs alone | –
pegylated interferon [pegIFN] | – | approximately 11%
